The source made the active and inactive calls. The calls are words filed in the database; no cut-off is given here.
What was measured:
[1] = biological target: T1, Alkaline phosphatase, tissue-nonspecific isozyme (Homo sapiens, UniProt P05186); test: Inhibition of FLAG-tagged TNAP (unknown origin) expressed in African green monkey COS1 cells after 30 mins by chemiluminescence assay; type: cell-based, COS-1
T1 sequence (P05186 whole entry): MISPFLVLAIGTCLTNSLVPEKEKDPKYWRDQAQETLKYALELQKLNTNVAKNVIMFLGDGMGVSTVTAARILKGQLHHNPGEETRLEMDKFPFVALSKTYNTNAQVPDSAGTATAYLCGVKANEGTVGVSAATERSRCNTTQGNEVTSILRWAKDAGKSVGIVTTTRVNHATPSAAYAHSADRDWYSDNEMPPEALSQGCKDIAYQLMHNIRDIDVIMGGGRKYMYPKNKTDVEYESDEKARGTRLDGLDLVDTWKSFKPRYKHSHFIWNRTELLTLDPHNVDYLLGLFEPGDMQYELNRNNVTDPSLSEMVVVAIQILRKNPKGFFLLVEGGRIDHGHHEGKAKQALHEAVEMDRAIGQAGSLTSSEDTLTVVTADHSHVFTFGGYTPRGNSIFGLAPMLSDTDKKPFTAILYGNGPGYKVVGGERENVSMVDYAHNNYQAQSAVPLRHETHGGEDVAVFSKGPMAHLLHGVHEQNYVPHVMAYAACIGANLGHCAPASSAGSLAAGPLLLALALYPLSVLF

[2] = biological target: Alkaline phosphatase, placental type (Homo sapiens, UniProt P05187); test: Inhibition of FLAG-tagged PLAP (unknown origin) expressed in African green monkey COS1 cells after 30 mins by chemiluminescence assay; type: cell-based, COS-1
[3] = biological target: T2, Intestinal-type alkaline phosphatase (Mus musculus, UniProt P24822); test: Inhibition of mouse duodenal-specific FLAG-tagged IAP expressed in African green monkey COS1 cells after 30 mins by chemiluminescence assay; type: cell-based, COS-1
[4] = biological target: T3, Intestinal-type alkaline phosphatase (Homo sapiens, UniProt P09923); test: Inhibition of human FLAG-tagged IAP expressed in African green monkey COS1 cells after 30 mins by chemiluminescence assay; type: cell-based, COS-1
[5] = biological target: T3, Intestinal-type alkaline phosphatase; test: Inhibition of human FLAG-tagged IAP expressed in African green monkey COS1 cells using p-nitrophenyl phosphate as substrate after 30 mins by chemiluminescence assay; type: cell-based, COS-1
[6] = biological target: Intestinal-type alkaline phosphatase (Mus musculus) (UniProt P24822); conditions: CHO-K1, 10 uM
Description: Inhibition of mouse duodenal-specific IAP expressed in CHOK1 cells at 10 uM by ELF97 staining-based phase contrast microscopic analysis

[7] = Inhibition of mouse gIAP using p-nitrophenyl phosphate as substrate after 30 mins by chemiluminescence assay
[8] = biological target: T2, Intestinal-type alkaline phosphatase; test: Competitive inhibition of mouse duodenal-specific FLAG-tagged IAP expressed in African green monkey COS1 cells using p-nitrophenyl phosphate as substrate by double reciprocal plot analysis; type: cell-based, COS-1; conditions: read-out: Ki(app)
[9] = biological target: T4, Alkaline phosphatase, germ cell type (Mus musculus, UniProt P24823); test: Inhibition of mouse EAP using p-nitrophenyl phosphate as substrate after 30 mins by chemiluminescence assay
T4 sequence (P24823 whole entry): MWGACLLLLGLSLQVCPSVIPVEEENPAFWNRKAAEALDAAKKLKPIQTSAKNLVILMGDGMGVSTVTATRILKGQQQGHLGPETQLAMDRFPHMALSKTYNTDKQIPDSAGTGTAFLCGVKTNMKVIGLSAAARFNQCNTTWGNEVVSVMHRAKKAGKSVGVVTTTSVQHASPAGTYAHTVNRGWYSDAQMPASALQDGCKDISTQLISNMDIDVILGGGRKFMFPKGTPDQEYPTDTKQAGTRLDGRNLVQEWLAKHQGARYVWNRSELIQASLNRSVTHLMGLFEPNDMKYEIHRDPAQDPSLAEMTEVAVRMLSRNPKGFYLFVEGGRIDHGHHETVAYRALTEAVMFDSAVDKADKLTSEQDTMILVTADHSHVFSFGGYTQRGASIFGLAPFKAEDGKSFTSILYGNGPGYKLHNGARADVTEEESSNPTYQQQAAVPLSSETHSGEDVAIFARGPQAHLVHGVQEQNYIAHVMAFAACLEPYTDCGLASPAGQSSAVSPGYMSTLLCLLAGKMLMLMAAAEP

[10] = biological target: T2, Intestinal-type alkaline phosphatase; test: Inhibition of mouse duodenal-specific FLAG-tagged IAP expressed in African green monkey COS1 cells using p-nitrophenyl phosphate as substrate after 30 mins by chemiluminescence assay

Alkaline phosphatase, placental type, sequence (P05187 whole entry): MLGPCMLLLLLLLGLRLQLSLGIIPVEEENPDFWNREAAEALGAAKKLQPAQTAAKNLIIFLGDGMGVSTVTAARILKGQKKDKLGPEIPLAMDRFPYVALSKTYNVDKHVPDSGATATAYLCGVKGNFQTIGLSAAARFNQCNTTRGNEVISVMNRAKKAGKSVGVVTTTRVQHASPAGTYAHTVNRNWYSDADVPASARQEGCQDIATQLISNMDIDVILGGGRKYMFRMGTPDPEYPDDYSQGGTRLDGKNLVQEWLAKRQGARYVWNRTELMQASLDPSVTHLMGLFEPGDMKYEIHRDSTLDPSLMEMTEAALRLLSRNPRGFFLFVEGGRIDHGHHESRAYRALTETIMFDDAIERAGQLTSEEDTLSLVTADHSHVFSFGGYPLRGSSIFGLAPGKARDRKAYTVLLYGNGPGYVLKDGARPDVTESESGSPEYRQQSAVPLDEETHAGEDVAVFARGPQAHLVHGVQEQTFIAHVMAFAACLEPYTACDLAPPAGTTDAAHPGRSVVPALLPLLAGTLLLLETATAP
T2 sequence (P24822 whole entry): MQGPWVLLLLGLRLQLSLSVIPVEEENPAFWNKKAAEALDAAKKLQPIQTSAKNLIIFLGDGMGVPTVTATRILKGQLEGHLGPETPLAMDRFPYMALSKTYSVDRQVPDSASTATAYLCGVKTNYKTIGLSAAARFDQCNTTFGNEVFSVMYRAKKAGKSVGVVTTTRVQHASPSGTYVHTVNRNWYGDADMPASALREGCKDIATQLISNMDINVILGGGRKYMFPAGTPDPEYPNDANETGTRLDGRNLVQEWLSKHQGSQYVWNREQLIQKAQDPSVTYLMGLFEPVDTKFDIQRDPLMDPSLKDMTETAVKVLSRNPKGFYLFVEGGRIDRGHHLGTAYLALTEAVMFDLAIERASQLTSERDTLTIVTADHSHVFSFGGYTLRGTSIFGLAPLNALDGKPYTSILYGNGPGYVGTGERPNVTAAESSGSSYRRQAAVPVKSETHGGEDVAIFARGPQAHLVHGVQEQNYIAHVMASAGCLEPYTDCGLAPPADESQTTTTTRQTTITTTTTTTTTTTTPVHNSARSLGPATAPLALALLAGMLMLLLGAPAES
T3 sequence (P09923 whole entry): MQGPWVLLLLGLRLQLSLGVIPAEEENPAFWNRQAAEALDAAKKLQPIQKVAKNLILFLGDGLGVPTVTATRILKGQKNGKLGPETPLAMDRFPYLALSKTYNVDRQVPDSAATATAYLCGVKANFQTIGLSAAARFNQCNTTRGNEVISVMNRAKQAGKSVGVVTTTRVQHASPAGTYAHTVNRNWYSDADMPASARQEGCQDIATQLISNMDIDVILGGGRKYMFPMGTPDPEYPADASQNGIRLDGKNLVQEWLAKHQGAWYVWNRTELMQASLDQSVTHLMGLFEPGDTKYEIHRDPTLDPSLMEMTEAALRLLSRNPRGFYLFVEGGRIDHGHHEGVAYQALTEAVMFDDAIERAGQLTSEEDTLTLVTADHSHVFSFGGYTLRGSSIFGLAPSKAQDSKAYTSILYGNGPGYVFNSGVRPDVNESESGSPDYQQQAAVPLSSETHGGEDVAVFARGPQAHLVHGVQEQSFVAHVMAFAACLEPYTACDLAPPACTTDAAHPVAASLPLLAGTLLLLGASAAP
Intestinal-type alkaline phosphatase (Mus musculus), sequence (P24822 whole entry): as the sequence (P24822 whole entry) above

SMILES | IC50 [1] [µM] | IC50 [2] [µM] | IC50 [3] [µM] | also measured
N#Cc1cccc(NC(=O)CCNS(=O)(=O)c2ccc3nc(O)oc3c2)c1 | > 100 | > 100 | 1.82 | IC50 [4]: > 100 µM
O=C(CCNS(=O)(=O)c1ccc2[nH]c(=O)oc2c1)Nc1ccc2c(c1)OCO2 | > 100 | > 100 | 12 | –
O=C(CCNS(=O)(=O)c1ccc2[nH]c(=O)oc2c1)NCCc1ccc2c(c1)OCO2 | > 100 | > 100 | 19 | –
COc1cccc(CNC(=O)NS(=O)(=O)c2ccc3[nH]c(=O)oc3c2)c1 | > 100 | > 100 | 40 | –
O=C(NCCc1ccc2c(c1)OCO2)NS(=O)(=O)c1ccc2[nH]c(=O)oc2c1 | > 100 | > 100 | > 100 | –
O=C(CCNS(=O)(=O)c1ccc2[nH]c(=O)oc2c1)NCc1ccc2c(c1)OCO2 | > 100 | > 100 | 2.6 | –
O=C(Nc1ccc2c(c1)OCO2)NS(=O)(=O)c1ccc2[nH]c(=O)oc2c1 | > 100 | > 100 | > 100 | –
N#Cc1ccc(NC(=O)NS(=O)(=O)c2ccc3[nH]c(=O)oc3c2)cc1 | > 100 | > 100 | > 100 | –
COc1ccc(NC(=O)NS(=O)(=O)c2ccc3[nH]c(=O)oc3c2)cc1OC | > 100 | > 100 | > 100 | –
N#Cc1cccc(NC(=O)NS(=O)(=O)c2ccc3[nH]c(=O)oc3c2)c1 | > 100 | > 100 | > 100 | –

The next lines start with results.

IC50 [1] [µM] | IC50 [2] [µM] | IC50 [3] [µM] | SMILES | also measured
> 100 | > 100 | > 100 | O=C(CNS(=O)(=O)c1ccc2[nH]c(=O)oc2c1)NCc1ccc2c(c1)OCO2 | –
> 100 | > 100 | 44 | O=C(CCNS(=O)(=O)c1ccc2[nH]c(=O)oc2c1)NCCCc1ccc2c(c1)OCO2 | –
> 100 | > 100 | > 100 | Cc1ccc(C)c(NC(=O)NS(=O)(=O)c2ccc3[nH]c(=O)oc3c2)c1 | –
> 100 | > 100 | > 100 | O=C(CNS(=O)(=O)c1ccc2[nH]c(=O)oc2c1)NCCc1ccc2c(c1)OCO2 | –
> 100 | > 100 | 89 | COc1ccc(CNC(=O)NS(=O)(=O)c2ccc3[nH]c(=O)oc3c2)c(OC)c1 | –
> 100 | > 100 | 45 | O=C(CCCNS(=O)(=O)c1ccc2[nH]c(=O)oc2c1)NCc1ccc2c(c1)OCO2 | –
35 | > 100 | 0.54 | Cc1ccc(C)c(NC(=O)CNS(=O)(=O)c2ccc3[nH]c(=O)oc3c2)c1 | IC50 [5]: 27.6 µM; inhibition [6]: Active; IC50 [7]: 21 µM; Ki [8]: 3.2 µM; IC50 [9]: 21.1 µM; IC50 [10]: 3.8 µM
